Test results as given in US20170013861A1, “BIOLOGICAL FORMULATION FOR COMPLEMENTING AN ANIMAL FEED, PROCESS FOR OBTAINING A BIOLOGICAL FORMULATION FOR AN ANIMAL FEED AND AN ANIMAL FEED” (PHB INDUSRIAL S.A., priority 2014, published 2017).

Assays:
broiler chickens [1] = experiment: Feed complementation for broiler chickens, whole productive cycle, 1 to 42 days (Example 6); type: in vivo; conditions: for Alimentary conversion / Average weight gain (GPM)/chicken / Feed consumption / GPD / % death: 0 to 42 days; for % death: broiler chickens; for Average weight (PM)/chicken, PM2: final weight, 42 days
Description: For this study there were used 2.352 chickens, males of the Cobb lineage 500, received with one day of life. The chickens were housed in 42 boxes, with 56 chickens being in each experimental unit. These chickens were submitted to different treatments, distributed randomly in 06 blocks of 07 experimental units, with two daily observations being made, in order to evaluate the general conditions of the batch, such as temperature, illumination, water, feed and conditions of the bed of each one of the boxes.
The treatments of each chicken batch were based on a pattern feed, with the following composition:
From this basal feed, the different treatments were developed as follows:
The results obtained with these different treatments are shown in the Table—Average weight, average weight gain, average feed consumption, alimentary conversion and mortality during the experimental period from 0 to 42 days: […]

broiler chickens [2] = experiment: Feed complementation for broiler chickens, initial growing cycle, 1 to 21 days (Example 5); type: in vivo; conditions: 0 to 21 days
Description: For this study it was used 336 chickens, males of Cobb lineage 500, received with one day of life. The chickens were housed in 28 cages, with 12 chickens being in each experimental unit. These chickens were submitted to 7 different treatments, each with 4 repetitions, distributed randomly in 7 blocks of 4 experimental units, with two daily observations being made, in order to evaluate the general conditions of the batch, such as temperature, illumination, water, feed and conditions of the bed of each one of the boxes.
The treatments of each batch of chickens were based on a pattern feed. Using this basal feed, the different treatments were developed as follows:
The quantity of formulation applied in the feeds presented as reference the used quantity of butyrates/feed ton, that is, within the interval from 200 g/feed ton to 1.000 g/feed ton.
The results obtained with these different treatments are related in the Table—Average weight, average weight gain, average feed consumption, alimentary conversion and mortality during the experimental period from 0 to 21 days: […]

| Compound | Alimentary conversion (broiler chickens [1]) | Average weight gain (GPM)/chicken (broiler chickens [1]) | Feed consumption (broiler chickens [1]) [kg] | GPD (broiler chickens [1]) | % death (broiler chickens [1]) [%] | Average weight (PM)/chicken, PM2 (broiler chickens [1]) | Alimentary conversion (broiler chickens [2]) | Accumulated mortality % (broiler chickens [2]; broiler chickens) [%] |
| --- | --- | --- | --- | --- | --- | --- | --- | --- |
| calcium butyrate [T3 - Ca, butyrate 45%] | 1.874 | 2.655 bc kg | 5.116 | 64.3 b g/day | 4.91 | 2.699 c kg | – | – |
| CCCC(=O)[O-].[Na+] [Treatment T2, sodium butyrate] | 1.789 | 2.709 abc kg | 5.058 | 65.5 a g/day | 6.47 | 2.753 abc kg | 1.371 | 10.41 |
